Test results taken from patent US20250361511A1, “NANOPARTICLE COMPOSITIONS CONTAINING SIRP-alpha siRNA FOR TREATMENT OF CANCER” (The Texas A&M University System, priority 2024, published 2025).

Key:
[1] = system: OVCAR3 monospheroids; test: Response to carboplatin chemotherapy, MTS viability, monospheroids; assay type: cell-based
Description: (§1) Spheroid formation on 384-well hanging drop arrays. OvCa monospheroids or OvCa/macrophage heterospheroids were formed on a 384-well hanging drop array following well-established protocols. OvCa monospheroids were initiated with 100 cells in a 20 μL drop of growth medium. To create OvCa/macrophage heterospheroids, the hanging drop platform was first leveraged to differentiate THP-1 monocytes to M0 macrophages by phorbol ester exposure20. Following a 3-day differentiation, macrophages were harvested and mixed with OvCa cells (50:50) to create heterospheroids. Monospheroid or heterospheroid formation was visually confirmed using phase contrast microscopy at day 4.
(§2) Response to chemotherapy. Carboplatin (MedChemExpress, Monmouth Junction, NJ) was dissolved by sonication in sterile PBS at a stock concentration of 5 mg/mL. OVCAR3 monospheroids or OVCAR3/macrophage heterospheroids formed over 4 days were treated with 0-500 μM carboplatin and incubated for 2 days/48 hours. An MTS assay was then used to determine the percent cell viability in carboplatin-treated spheroids compared to untreated controls. IC50 values were calculated with the GraphPad Prism normalized log (inhibitor) variable slope nonlinear fit function.
(§3) siSIRPα LNP immune checkpoint treatment. Mono-or hetero-spheroids were treated with 25 nM siSIRPα LNP on day 2 in hanging drop culture. LNP ability to reduce both macrophage SIRPα expression and OvCa metastatic behavior were evaluated over 4 more days.

[2] = system: OVCAR3/macrophage heterospheroids; test: Response to carboplatin chemotherapy, MTS viability, heterospheroids; assay type: cell-based
Description: as §1, §2, §3

N.N.O=C([O-])C1(C(=O)[O-])CCC1.[Pt+2] [carboplatin]
IC50 ([1]; OVCAR3 monospheroids, carboplatin 0-500 μM, FIG. 1B): 114 µM | IC50 ([1]; monospheroids after siSIRPα LNP, FIG. 15A): 272 µM | IC50 ([1]; monospheroids, control, 0-500 μM for 48 hours, MTS, FIG. 10C/15A): 218 µM | IC50 ([2]; OVCAR3/THP1 OvCa/MP hetero-spheroids, no LNP, FIG. 1B/6B): 536 µM | IC50 ([2]; OvCa/MP hetero-spheroids treated with siSIRPα-LNP, FIG. 6B): 213 µM | IC50 ([2]; heterospheroids with 25 nM siSIRPα LNP treatment, FIG. 14B): 321 ± 54.6 µM | IC50 ([2]; heterospheroids with negative control (scramble) siRNA LNP, FIG. 15C): 405 µM | IC50 ([2]; heterospheroids, no treatment, 0-500 μM for 48 hours, MTS, FIG. 10C/14B/15C): 368 µM
